Source: article PMC11148772, “Inhibition of protein translational machinery in triple-negative breast cancer as a promising therapeutic strategy” (Cell Reports Medicine, 2024)
“Also recorded” adds a separate entry of the source.

Columns and labels:
[1] = tested on: TNBC cells (MDA-MB-231, MDA-MB-468, SUM159); assay: Immunoblot assay of cell lysates; format: cell-based, human; conditions: MDA-MB-231 and MDA-MB-468, 1 and 2 μM
[2] = tested on: MDA-MB-231, MDA-MB-468 and MCF12A cells; assay: Global proteome profiling with pathway enrichment; format: cell-based, human; conditions: 1 μM, 12 h, TNBC cells vs vehicle
Experimental: MDA-MB-231, MDA-MB-468, and MCF12A cells were grown to 80% confluence and then treated with DMSO (vehicle control) or SU056 (1 μM) for 12 h. Cells were washed twice with phosphate-buffered saline (PBS), harvested by scaping, and centrifuged. Cells were lysed by vortexing in 100 mM triethylammonium bicarbonate (TEAB, Thermo Fisher Scientific) in 1% sodium dodecyl sulfate (SDS). The lysate was centrifuged, and the supernatant was retained. A bicinchoninic acid assay (BCA, Thermo Scientific, Rockville, IL) was used to measure protein concentration and 50 μg of protein per sample was subjected to disulfide bond reduction using 10 mM TCEP (Sigma Aldrich) for 1 h at 55°C. Cysteine resides were then alkylated with iodoacetamide (Sigma Aldrich) for 30 min at room temperature in the dark. […] All samples were analyzed in triplicate.
Using a Dionex Ultimate Rapid Separation Liquid Chromatography system (Thermo Fisher Scientific), a 3 μL injection of the combined TMT-labeled peptide solution was loaded onto a PepMap 100 C18 trap column (Thermo Fisher Scientific) at a rate of 5 μL/min for 10 min. […] The flow rate was set to 0.6 μL/min throughout the gradient and each sample was analyzed in triplicate. […]
Raw LC-MS/MS data was analyzed using MaxQuant[50] searching against the Swiss-Prot human reference proteome database (20,626 entries as of 2020). […]

[3] = tested on: CA1262-PDX-TNBC and MA2821-PDX-TNBC tumors; assay: Immunoblot of PDX tumor lysates; format: in vivo, mouse; conditions: daily oral 50 mg/kg for 3 weeks
Experimental: MDA-MB-231, MDA-MB-468, and SUM159 cells were grown to 60–70% confluency and treated with DMSO and SU056 (1 μM) for 12 and 24 h. After the specific treatment time was over, total cell lysates were prepared in non-denaturing lysis buffer. For protein lysate from tumors: randomly selected frozen sample; three from vehicle and SU056 treated group were homogenized in non-denaturing lysis buffer at 4°C for 5 min. 10 μg of protein lysate per sample was resolved on 8–16% SDS-PAGE. Membranes were probed with specific primary antibodies followed by detection with HRP-conjugated appropriate secondary antibodies, visualized by enhanced chemiluminescence detection system, and imaged using an iBright imaging system (Thermo Fisher, USA).

[4] = Maximum tolerated dose / acute oral toxicity; format: in vivo, mouse; conditions: for Body Weight, Mean / Toxicity (death/test): ICR (Female) mice
Experimental: The acute oral toxicity of SU056 was evaluated by Eurofins lab services (Eurofins discovery). The oral toxicity study was performed in female rats and mice for multiple escalating doses (100 mg/kg, 200 mg/kg, 400 mg/kg). Rats and mice were monitored for their behavioral, neurological and autonomic signs after administration of SU056. The response was recorded as 0; no adverse effect, ±1 mild adverse effect, ±2, moderate adverse effect and ±3 severe adverse effect.

O=C1OCC2=C1C(c1cccc(F)c1)c1cc3c(cc1N2CCO)OCO3 (centres unmarked) [SU056, 9-(3-fluorophenyl)-5-(2-hydroxyethyl)-6,9-dihydro-[1,3]dioxolo[4,5-g]furo[3,4-b]quinolin-8(5H)-one]
BCL-2 expression [1]: inhibited
Bax expression [1]: induced
protein translation processes (proteomic pathway analysis) [2]: modulated
levels of YB-1 and RPL-11 in tumors [3]: decrease
Body Weight, Mean ([4]; 100 mg/kg, 0 hr): 23.0 gm
Toxicity (death/test) ([4]; 100 mg/kg, 15 min): 0/3
Toxicity (death/test) ([4]; 100 mg/kg, 1 hr): 0/3
Body Weight, Mean ([4]; 100 mg/kg, 24 hr): 23.0 gm
Toxicity (death/test) ([4]; 100 mg/kg, 24 hr): 0/3
Body Weight, Mean ([4]; 100 mg/kg, 48 hr): 23.3 gm
Toxicity (death/test) ([4]; 100 mg/kg, 48 hr): 0/3
Body Weight, Mean ([4]; 100 mg/kg, 72 hr): 24.3 gm
Toxicity (death/test) ([4]; 100 mg/kg, 72 hr): 0/3
Body Weight, Mean ([4]; 200 mg/kg, 0 hr): 23.7 gm
Toxicity (death/test) ([4]; 200 mg/kg, 15 min): 0/3
Toxicity (death/test) ([4]; 200 mg/kg, 1 hr): 0/3
Body Weight, Mean ([4]; 200 mg/kg, 24 hr): 24.0 gm
Toxicity (death/test) ([4]; 200 mg/kg, 24 hr): 0/3
Body Weight, Mean ([4]; 200 mg/kg, 48 hr): 24.0 gm
Toxicity (death/test) ([4]; 200 mg/kg, 48 hr): 0/3
Body Weight, Mean ([4]; 200 mg/kg, 72 hr): 24.3 gm
Toxicity (death/test) ([4]; 200 mg/kg, 72 hr): 0/3
Body Weight, Mean ([4]; 400 mg/kg, 0 hr): 22.7 gm
Toxicity (death/test) ([4]; 400 mg/kg, 15 min): 0/3
Toxicity (death/test) ([4]; 400 mg/kg, 1 hr): 0/3
Body Weight, Mean ([4]; 400 mg/kg, 24 hr): 22.7 gm
Toxicity (death/test) ([4]; 400 mg/kg, 24 hr): 0/3
Body Weight, Mean ([4]; 400 mg/kg, 48 hr): 23.3 gm
Toxicity (death/test) ([4]; 400 mg/kg, 48 hr): 0/3
Body Weight, Mean ([4]; 400 mg/kg, 72 hr): 24.3 gm
Toxicity (death/test) ([4]; 400 mg/kg, 72 hr): 0/3
behavioral, neurological, and anatomical signs of toxicity and morbidity ([4]; mice, 100, 200, and 400 mg/kg oral gavage, 72 h): not affected; also recorded: no observable changes
